Each molecule was assayed against T1, HGFR (Homo sapiens, UniProt P08581) (assay: HGFR continuous-coupled spectrophotometric assay). Conditions: at 1 pM; Table 6, library procedure 41; read-out: % Inhibition (percent c-MET inhibition).
T1 construct: purchased Upstate 14-526
T1 sequence (P08581 974-1390 limits assumed): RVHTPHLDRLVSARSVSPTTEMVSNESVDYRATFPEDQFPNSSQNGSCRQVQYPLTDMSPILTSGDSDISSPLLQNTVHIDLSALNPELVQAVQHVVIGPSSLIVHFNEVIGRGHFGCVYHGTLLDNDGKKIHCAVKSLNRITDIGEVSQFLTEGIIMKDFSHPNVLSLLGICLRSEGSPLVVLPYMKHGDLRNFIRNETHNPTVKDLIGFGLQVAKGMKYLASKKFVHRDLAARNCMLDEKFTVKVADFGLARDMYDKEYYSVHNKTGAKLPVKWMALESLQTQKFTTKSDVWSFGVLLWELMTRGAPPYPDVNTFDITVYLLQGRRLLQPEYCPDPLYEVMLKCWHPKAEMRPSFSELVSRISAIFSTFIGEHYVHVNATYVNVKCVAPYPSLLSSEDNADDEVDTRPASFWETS
Format: biochemical
In the case of Nc1ncc(C(=O)N2CCC(CO)CC2)cc1OCc1c(Cl)cccc1Cl [Example L-257], the inhibition at 1 pM is reported as 43%. With Nc1ncc(C(=O)N2CCC(CCO)CC2)cc1OCc1c(Cl)cccc1Cl [Example L-258] the inhibition at 1 pM was 45%. With CN(CC(N)=O)C(=O)c1cnc(N)c(OCc2c(Cl)cccc2Cl)c1 [Example L-259] the inhibition at 1 pM was 39%. In the case of CC1CCC(=O)C(NC(=O)c2cnc(N)c(OCc3c(Cl)cccc3Cl)c2)C1 [Example L-260], the inhibition at 1 pM is reported as 40%. Nc1ncc(C(=O)N2CCN(CCCN3CCOCC3)CC2)cc1OCc1c(Cl)cccc1Cl [Example L-261] gave an inhibition at 1 pM of 40%. CN(C)C(=O)CN1CCN(C(=O)c2cnc(N)c(OCc3c(Cl)cccc3Cl)c2)CC1 [Example L-262] showed an inhibition at 1 pM of 42%. Nc1ncc(C(=O)NCCN2CCN(Cc3ccccc3)CC2)cc1OCc1c(Cl)cccc1Cl [Example L-263] was tested, and the inhibition at 1 pM was 36%. Nc1ncc(C(=O)NC[C@H]2CC[C@H](c3nc4ccccc4[nH]3)CC2)cc1OCc1c(Cl)cccc1Cl [Example L-264] showed an inhibition at 1 pM of 38%. Molecule Nc1ncc(C(=O)NCc2ccc(C(F)(F)F)nc2)cc1OCc1c(Cl)cccc1Cl [Example L-265] has an inhibition at 1 pM of 17%. For CN(C)C(=O)c1cnc(N)c(OCc2c(Cl)cccc2Cl)c1 [Example L-266], the inhibition at 1 pM was 10%. In the case of Nc1ncc(C(=O)N2CCN(c3ccc(Br)cn3)CC2)cc1OCc1c(Cl)cccc1Cl [Example L-267], the inhibition at 1 pM is reported as 5%. Molecule Cc1ccc(N2CCN(CCCCNC(=O)c3cnc(N)c(OCc4c(Cl)cccc4Cl)c3)CC2)cc1 [Example L-268] has an inhibition at 1 pM of 15%. Work on Nc1ncc(C(=O)N2CCS(=O)(=O)CC2)cc1OCc1c(Cl)cccc1Cl [Example L-269] yielded an inhibition at 1 pM of 10%. For C[C@@H]1CCC[C@H](C)N1CCNC(=O)c1cnc(N)c(OCc2c(Cl)cccc2Cl)c1 [Example L-270], the inhibition at 1 pM was 2%. Work on Nc1ncc(C(=O)N[C@@H]2CCC[C@H]2OCc2ccccc2)cc1OCc1c(Cl)cccc1Cl [Example L-271] yielded an inhibition at 1 pM of 16%. Nc1ncc(C(=O)NC[C@]2(O)CC[C@H](c3ccccc3)CC2)cc1OCc1c(Cl)cccc1Cl [Example L-272] was tested, and the inhibition at 1 pM was 15%. Work on Nc1ncc(C(=O)NCCc2cccc(O)c2)cc1OCc1c(Cl)cccc1Cl [Example L-273] yielded an inhibition at 1 pM of 17%. For N#CCCN1CCN(C(=O)c2cnc(N)c(OCc3c(Cl)cccc3Cl)c2)CC1 [Example L-274], the inhibition at 1 pM was 19%. Molecule Nc1ncc(C(=O)NCc2cc3cc[nH]c3cn2)cc1OCc1c(Cl)cccc1Cl [Example L-275] has an inhibition at 1 pM of 28%. Nc1ncc(C(=O)NCC(O)CN2CCC(Cc3ccccc3)CC2)cc1OCc1c(Cl)cccc1Cl [Example L-276] showed an inhibition at 1 pM of 32%. Nc1ncc(C(=O)N2CCCN(Cc3ccc(F)cc3)CC2)cc1OCc1c(Cl)cccc1Cl [Example L-277] showed an inhibition at 1 pM of 26%. Molecule Cc1ccc(F)c(CNC(=O)c2cnc(N)c(OCc3c(Cl)cccc3Cl)c2)c1F [Example L-278] has an inhibition at 1 pM of 31%. For Nc1ncc(C(=O)NCc2c(F)cccc2F)cc1OCc1c(Cl)cccc1Cl [Example L-279], the inhibition at 1 pM was 32%. For Nc1ncc(C(=O)N2CCN(CC(=O)Nc3ccccn3)CC2)cc1OCc1c(Cl)cccc1Cl [Example L-280], the inhibition at 1 pM was 56%. Nc1ncc(C(=O)N2CCN(Cc3cccc4ccccc34)CC2)cc1OCc1c(Cl)cccc1Cl [Example L-281] was tested, and the inhibition at 1 pM was 26%. CCS(=O)(=O)N1CCN(C(=O)c2cnc(N)c(OCc3c(Cl)cccc3Cl)c2)CC1 [Example L-282] gave an inhibition at 1 pM of 22%. Nc1ncc(C(=O)N2CCC(N3CCCCC3=O)CC2)cc1OCc1c(Cl)cccc1Cl [Example L-283] was tested, and the inhibition at 1 pM was 26%. Nc1ncc(C(=O)N2CCC3(CCNC3=O)CC2)cc1OCc1c(Cl)cccc1Cl [Example L-284] was tested, and the inhibition at 1 pM was 27%. For Nc1ncc(C(=O)N2CCNC(=O)CC2)cc1OCc1c(Cl)cccc1Cl [Example L-285], the inhibition at 1 pM was 31%. Nc1ncc(C(=O)N2CCCC(C(=O)N3CCCC3)C2)cc1OCc1c(Cl)cccc1Cl [Example L-286] showed an inhibition at 1 pM of 47%. For Nc1ncc(C(=O)N2CCCC(C(=O)N3CCOCC3)C2)cc1OCc1c(Cl)cccc1Cl [Example L-287], the inhibition at 1 pM was 21%. In the case of COCCNC(=O)C1CCCN(C(=O)c2cnc(N)c(OCc3c(Cl)cccc3Cl)c2)C1 [Example L-288], the inhibition at 1 pM is reported as 20%. In the case of CC(C)(O)c1ccc(CNC(=O)c2cnc(N)c(OCc3c(Cl)cccc3Cl)c2)cc1 [Example L-289], the inhibition at 1 pM is reported as 24%. In the case of Nc1ncc(C(=O)N2CCCC2c2ccncc2)cc1OCc1c(Cl)cccc1Cl [Example L-290], the inhibition at 1 pM is reported as 19%. Nc1ncc(C(=O)NCCc2nc3ccccc3s2)cc1OCc1c(Cl)cccc1Cl [Example L-291] showed an inhibition at 1 pM of 26%. Nc1ncc(C(=O)NCC2=CSC3=NCCN23)cc1OCc1c(Cl)cccc1Cl [Example L-292] showed an inhibition at 1 pM of 99%. With Nc1ncc(C(=O)NC2CCCNC2=O)cc1OCc1c(Cl)cccc1Cl [Example L-293] the inhibition at 1 pM was 16%. Cc1cc2cc(CNC(=O)c3cnc(N)c(OCc4c(Cl)cccc4Cl)c3)ccc2[nH]1 [Example L-294] gave an inhibition at 1 pM of 20%. Work on CN(C)C(CNC(=O)c1cnc(N)c(OCc2c(Cl)cccc2Cl)c1)c1cccnc1 [Example L-295] yielded an inhibition at 1 pM of 18%. For CS(=O)(=O)C1CCN(C(=O)c2cnc(N)c(OCc3c(Cl)cccc3Cl)c2)C1 [Example L-296], the inhibition at 1 pM was 23%. CN(CCS(C)(=O)=O)C(=O)c1cnc(N)c(OCc2c(Cl)cccc2Cl)c1 [Example L-297] showed an inhibition at 1 pM of 26%. Work on Nc1ncc(C(=O)NCCC2CCOCC2)cc1OCc1c(Cl)cccc1Cl [Example L-298] yielded an inhibition at 1 pM of 31%. CS(=O)(=O)CCN1CCN(C(=O)c2cnc(N)c(OCc3c(Cl)cccc3Cl)c2)CC1 [Example L-299] was tested, and the inhibition at 1 pM was 25%. Nc1ncc(C(=O)NC(CO)c2cccnc2)cc1OCc1c(Cl)cccc1Cl [Example L-300] gave an inhibition at 1 pM of 22%. For Nc1ncc(C(=O)N2CCN(CC(=O)N3CCCCC3)CC2)cc1OCc1c(Cl)cccc1Cl [Example L-301], the inhibition at 1 pM was 24%. With Nc1ncc(C(=O)N2CCC(Cc3ccc(F)cc3)CC2)cc1OCc1c(Cl)cccc1Cl [Example L-302] the inhibition at 1 pM was 41%. Nc1ncc(C(=O)NCc2ncccc2O)cc1OCc1c(Cl)cccc1Cl [Example L-303] showed an inhibition at 1 pM of 24%. For CCCCOc1ccc(CNC(=O)c2cnc(N)c(OCc3c(Cl)cccc3Cl)c2)cc1 [Example L-304], the inhibition at 1 pM was 18%. For Nc1ncc(C(=O)NCc2ccc(OC(F)F)cc2)cc1OCc1c(Cl)cccc1Cl [Example L-305], the inhibition at 1 pM was 26%. Work on COc1ccc(C(CCO)NC(=O)c2cnc(N)c(OCc3c(Cl)cccc3Cl)c2)cc1 [Example L-306] yielded an inhibition at 1 pM of 22%. With Nc1ncc(C(=O)N2CCNC(=O)C2)cc1OCc1c(Cl)cccc1Cl [Example L-307] the inhibition at 1 pM was 22%. Work on Nc1ncc(C(=O)NCc2c(F)cccc2C(F)(F)F)cc1OCc1c(Cl)cccc1Cl [Example L-308] yielded an inhibition at 1 pM of 33%. With Nc1ncc(C(=O)N2CCCC(F)(F)C2)cc1OCc1c(Cl)cccc1Cl [Example L-309] the inhibition at 1 pM was 16%. Nc1ncc(C(=O)NCc2ccc[nH]c2=O)cc1OCc1c(Cl)cccc1Cl [Example L-310] was tested, and the inhibition at 1 pM was 16%. In the case of Cc1ccc2c(c1)C(NC(=O)c1cnc(N)c(OCc3c(Cl)cccc3Cl)c1)CCO2 [Example L-311], the inhibition at 1 pM is reported as 17%. CCN1CCCC(NC(=O)c2cnc(N)c(OCc3c(Cl)cccc3Cl)c2)C1 [Example L-312] gave an inhibition at 1 pM of 19%. Nc1ncc(C(=O)N2CCC(COCc3ccccc3F)CC2)cc1OCc1c(Cl)cccc1Cl [Example L-313] gave an inhibition at 1 pM of 10%. Molecule Nc1ncc(C(=O)NCCC2CCC(=O)N2CCc2ccc(O)cc2)cc1OCc1c(Cl)cccc1Cl [Example L-314] has an inhibition at 1 pM of 16%. Nc1ncc(C(=O)N2CCC(Cc3cnccn3)CC2)cc1OCc1c(Cl)cccc1Cl [Example L-315] showed an inhibition at 1 pM of 72%. Molecule Nc1ncc(C(=O)N2CCC(Cc3cccc(CO)c3)CC2)cc1OCc1c(Cl)cccc1Cl [Example L-316] has an inhibition at 1 pM of 11%. Work on NC(=O)c1ccc(CC2CCN(C(=O)c3cnc(N)c(OCc4c(Cl)cccc4Cl)c3)CC2)cc1 [Example L-317] yielded an inhibition at 1 pM of 12%. Molecule Nc1ncc(C(=O)N2CCC3(CC2)CC(N2CCNC(=O)C2)CO3)cc1OCc1c(Cl)cccc1Cl [Example L-318] has an inhibition at 1 pM of 17%. Molecule CCN(CC)CC1(O)CCN(C(=O)c2cnc(N)c(OCc3c(Cl)cccc3Cl)c2)CC1 [Example L-319] has an inhibition at 1 pM of 71%. For Nc1ncc(C(=O)N2CCC3(CC2)CC(N2CCC(O)CC2)CO3)cc1OCc1c(Cl)cccc1Cl [Example L-320], the inhibition at 1 pM was 28%. For CN(CCC1CCC(=O)N1CC(F)(F)F)C(=O)c1cnc(N)c(OCc2c(Cl)cccc2Cl)c1 [Example L-321], the inhibition at 1 pM was 25%. Work on Nc1ncc(C(=O)N2CCC(O)(CCc3ccncc3)CC2)cc1OCc1c(Cl)cccc1Cl [Example L-322] yielded an inhibition at 1 pM of 25%. Nc1ncc(C(=O)NCc2noc(C(=O)N3CCC(CO)CC3)n2)cc1OCc1c(Cl)cccc1Cl [Example L-323] showed an inhibition at 1 pM of 26%. Work on Nc1ncc(C(=O)N2CCCC(Cc3ncccn3)C2)cc1OCc1c(Cl)cccc1Cl [Example L-324] yielded an inhibition at 1 pM of 25%. Molecule Nc1ncc(C(=O)N2CCC3(CC2)CC3C(=O)N2CCCCC2)cc1OCc1c(Cl)cccc1Cl [Example L-325] has an inhibition at 1 pM of 26%. Cc1noc([C@H]2CC[C@H](CNC(=O)c3cnc(N)c(OCc4c(Cl)cccc4Cl)c3)CC2)n1 [Example L-326] was tested, and the inhibition at 1 pM was 3%. Nc1ncc(C(=O)NCc2noc(C(=O)N3CC[C@H](O)C3)n2)cc1OCc1c(Cl)cccc1Cl [Example L-327] was tested, and the inhibition at 1 pM was 26%. Nc1ncc(C(=O)N2CCc3nnc(CCN4CCOCC4)n3CC2)cc1OCc1c(Cl)cccc1Cl [Example L-328] was tested, and the inhibition at 1 pM was 27%. For C=C(Cl)/C(=C/O)COc1cc(C(=O)NC2COC3(CCN(Cc4[nH]cnc4C)CC3)C2)cnc1N [Example L-329], the inhibition at 1 pM was 30%. Molecule CCC(CC)CN1CCC2(CC1)CC(NC(=O)c1cnc(N)c(OCc3c(Cl)cccc3Cl)c1)CO2 [Example L-330] has an inhibition at 1 pM of 74%. With COCC1CN(CC(N)=O)CCN(C(=O)c2cnc(N)c(OCc3c(Cl)cccc3Cl)c2)C1 [Example L-331] the inhibition at 1 pM was 23%. Work on Nc1ncc(C(=O)NC2COC3(CCN(c4ncccn4)CC3)C2)cc1OCc1c(Cl)cccc1Cl [Example L-332] yielded an inhibition at 1 pM of 21%.

Reference: US20050009840A1 (SUGEN, INC., priority 2003, published 2005)
